Measured values reported in US4835160A, “Derivatives of pyridoindole, having anti-tumor properties” (Sanofi, priority 1986, dated 1989).

Assays:
in vivo [1] = assay: in vivo; set-up: species or system CDF1 hybrid mice; details: mouse, ip
Description: The compounds of the invention benefit from a good tolerance and a weak toxicity.
Thus the administration, to healthy CDF1 hybrid mice, in a single injection by intraperitoneal route, of the compounds under test, has enabled it to be established that the product is perfectly tolerated at a high dosage since the survival rate of the animals of the experiment was 100 out of 100 thirteen days after administration.

in vivo [2] = assay: in vivo; set-up: species or system female CDF1 hybrid mice; details: mouse, iv
Procedure: In addition the administration, to healthy female CDF1 hybrid mice, in a single injection by intravenous route with a perfusor, lasting 4 minutes, of the compounds under test in solution in physiological serum at a rate of 0.1 ml of solution per 10 g weight of the animals has enabled it to be established that the compounds are also well tolerated at a high dosage in these conditions.

leukemia P 388 = assay: Test of leukemia P 388; IP/IP, D1-5; type: in vivo, CDF1 hybrid mice; details: D1-D5; for Number of survivors: day D30; for T/C %: survival time
Outline: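 CDF1 hybrid mice received 10^6 P 388 cells intraperitoneally, then compound in distilled water by intraperitoneal route daily D1-D5, 10 mice per group, 5-fluorouracil as positive control. Activity judged as T/C survival time versus untreated controls, survivors counted at D30; T/C ≤85% or day 5 minus day 1 weight change ≤ −4 g counted as toxic.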

leukemia P388 = assay: Test for leukemia P388, IP/IP, D1; type: in vivo, CDF1 hybrid mice; details: for Number of survivors: day D30; for T/C %: survival time
Procedure: The antitumour activity was tested in vivo on various tumours inoculated in various ways according to the following general protocol:
All the male or female mice are inoculated on day D0 with a known quantity of viable tumour cells for ascitic tumours or with a known tumour fragment for solid tumours.
They are then distributed into various groups. Each group, corresponding to the animals treated by the product under test, is made up of 10 mice. The product under test is dissolved in distilled water and it is administered n times (Dx-Dy), n, y, and x varying according to the protocol chosen, at the rate of 0.1 ml of solution per 10 g by weight of mice treated and at specific doses for each protocol.
The "negative control" group, corresponding to the animals which are not treated by the product, contains 2√N animals, N being equal to or greater than the total number of mice treated by the product in the same experiment.
Finally, the tests can also be carried out at the same time as the study of a group called "positive control", of ten animals, which is treated by a molecule, known for its antitumour activity and which can vary according to the protocol chosen, in the same conditions as the groups treated by the product under test.
The antitumour activity is evaluated, in the case of ascitic tumours, by considering the increase in the survival time of the animals treated in comparison to that of the animals in the "negative control" group, according to the formula: [formula]
Also, a product is considered as toxic at the dose studied when this T/C value is equal to or less than 85%. In addition, a product is also considered as toxic at the dose studied when the weight variation, expressed in grams and calculated by the formula: […]
The tests are carried out with CDF1 hybrid mice inoculated by intraperitoneal route with 10^6 leukemia cells from the P 388 line. The compound under test is administered for 5 successive days (D1-D5) by intraperitoneal route. The positive control for the test is 5-fluorouracile which is administered in the same conditions. The number of surviving animals is evaluated on day D30.
(b) Test for Leukemia P388, IP/IP, D1 (GERAN et al. Cancer chemother., 1972, 2, 07-57).
The test is carried out according to the preceding protocol, the compound under test being administered only on day D1.

melanoma B 16 = assay: Test for melanoma B 16; type: in vivo, BDF1 hybrid mice; details: D1-D9; for Number of survivors: day D60; for T/C %: survival time
Outline: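 BDF1 mice inoculated i.p. with 0.5 ml B16 melanoma homogenate (1 g tumour in 10 ml physiological serum); compound given i.p. daily D1–D9, Cis-platine positive control under same conditions. Surviving animals counted on D60; activity as survival increase vs untreated controls (T/C), toxicity if T/C ≤85%.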

CCN(CC)CCCNc1ncc(C)c2[nH]c3ccc(O)cc3c12 [Derivative No. 7, 1-(diethylaminopropylamino)-8-hydroxy-4-methyl-5H-pyrido[4,3-b]indole]
survival at 312 h (in vivo [1]; 50 mg/kg): 100%
survival at 192 h (in vivo [2]; 25 mg/kg): 100%
survival at 192 h (in vivo [2]; 30 mg/kg): 100%
Median day of survival (leukemia P 388; 0.625 mg/kg IP): 14.3 days
Variation by weight (g) (leukemia P 388; 0.625 mg/kg IP): +0.3 g
Number of survivors (leukemia P 388; 0.625 mg/kg IP): 0/10
T/C % (leukemia P 388; 0.625 mg/kg IP): 127%
Median day of survival (leukemia P 388; 1.25 mg/kg IP): 17.25 days
Variation by weight (g) (leukemia P 388; 1.25 mg/kg IP): +0.3 g
Number of survivors (leukemia P 388; 1.25 mg/kg IP): 0/10
T/C % (leukemia P 388; 1.25 mg/kg IP): 153%
Median day of survival (leukemia P 388; 2.5 mg/kg IP): 18.25 days
Variation by weight (g) (leukemia P 388; 2.5 mg/kg IP): +0.1 g
Number of survivors (leukemia P 388; 2.5 mg/kg IP): 0/10
T/C % (leukemia P 388; 2.5 mg/kg IP): 162%
Median day of survival (leukemia P 388; 5 mg/kg IP): 19.25 days
Variation by weight (g) (leukemia P 388; 5 mg/kg IP): +0.3 g
Number of survivors (leukemia P 388; 5 mg/kg IP): 0/10
T/C % (leukemia P 388; 5 mg/kg IP): 170%
Median day of survival (leukemia P 388; 10 mg/kg IP): 20.9 days
Variation by weight (leukemia P 388; 10 mg/kg IP): -0.2 g
Number of survivors (leukemia P 388; 10 mg/kg IP): 0/10
T/C % (leukemia P 388; 10 mg/kg IP): 185%
Median day of survival (leukemia P 388; 15 mg/kg IP): 23.55 days
Variation by weight (g) (leukemia P 388; 15 mg/kg IP): +1.6 g
Number of survivors (leukemia P 388; 15 mg/kg IP): 3/10
T/C % (leukemia P 388; 15 mg/kg IP): 208%
Median day of survival (leukemia P 388; 20 mg/kg IP): 27.0 days
Variation by weight (leukemia P 388; 20 mg/kg IP): -1.1 g
Number of survivors (leukemia P 388; 20 mg/kg IP): 1/10
T/C % (leukemia P 388; 20 mg/kg IP): 238%
Median day of survival (leukemia P 388; 30 mg/kg IP): 9.25 days
Variation by weight (leukemia P 388; 30 mg/kg IP): 0.0 g
Number of survivors (leukemia P 388; 30 mg/kg IP): 0/10
T/C % (leukemia P 388; 30 mg/kg IP): 81%
Median day of survival (leukemia P388; 10 mg/kg IP): 15.1 days
Variation by weight (g) (leukemia P388; 10 mg/kg IP): +1.2 g
Number of survivors (leukemia P388; 10 mg/kg IP): 0/10
T/C % (leukemia P388; 10 mg/kg IP): 129%
Median day of survival (leukemia P388; 20 mg/kg IP): 16.25 days
Variation by weight (g) (leukemia P388; 20 mg/kg IP): +0.2 g
Number of survivors (leukemia P388; 20 mg/kg IP): 0/10
T/C % (leukemia P388; 20 mg/kg IP): 139%
Median day of survival (leukemia P388; 40 mg/kg IP): 15.9 days
Variation by weight (leukemia P388; 40 mg/kg IP): -0.2 g
Number of survivors (leukemia P388; 40 mg/kg IP): 0/10
T/C % (leukemia P388; 40 mg/kg IP): 136%
Median day of survival (leukemia P388; 80 mg/kg IP): 2.3 days
Variation by weight (leukemia P388; 80 mg/kg IP): -1.7 g
Number of survivors (leukemia P388; 80 mg/kg IP): 0/10
T/C % (leukemia P388; 80 mg/kg IP): 20%
Median day of survival (melanoma B 16; 2.5 mg/kg IP): 34 days
Variation by weight (g) (melanoma B 16; 2.5 mg/kg IP): +3.6 g
Number of survivors (melanoma B 16; 2.5 mg/kg IP): 0/10
T/C % (melanoma B 16; 2.5 mg/kg IP): 124%
Median day of survival (melanoma B 16; 5 mg/kg IP): 48 days
Variation by weight (melanoma B 16; 5 mg/kg IP): -0.1 g
Number of survivors (melanoma B 16; 5 mg/kg IP): 0/10
T/C % (melanoma B 16; 5 mg/kg IP): 174%
Median day of survival (melanoma B 16; 10 mg/kg IP): 56.25 days
Variation by weight (g) (melanoma B 16; 10 mg/kg IP): +1.6 g
Number of survivors (melanoma B 16; 10 mg/kg IP): 4/10
T/C % (melanoma B 16; 10 mg/kg IP): 205%
Median day of survival (melanoma B 16; 20 mg/kg IP): 58 days
Variation by weight (melanoma B 16; 20 mg/kg IP): -0.8 g
Number of survivors (melanoma B 16; 20 mg/kg IP): 5/10
T/C % (melanoma B 16; 20 mg/kg IP): 211%
Median day of survival (melanoma B 16; 30 mg/kg IP): 9.0 days
Variation by weight (melanoma B 16; 30 mg/kg IP): -1.0 g
Number of survivors (melanoma B 16; 30 mg/kg IP): 0/10
T/C % (melanoma B 16; 30 mg/kg IP): 33%

Cc1cnc(NCCCN(C)C)c2c1[nH]c1ccc(O)cc12 [Derivative No. 10, 1-(3-dimethylaminopropylamino)-8-hydroxy-4-methyl-5H-pyrido[4,3-b]indole]
survival at 312 h (in vivo [1]; 100 mg/kg): 100%
survival at 192 h (in vivo [2]; 25 mg/kg): 100%
survival at 192 h (in vivo [2]; 40 mg/kg): 40%
Median day of survival (leukemia P 388; 0.625 mg/kg IP): 15.75 days
Variation by weight (g) (leukemia P 388; 0.625 mg/kg IP): +4.1 g
Number of survivors (leukemia P 388; 0.625 mg/kg IP): 0/10
T/C % (leukemia P 388; 0.625 mg/kg IP): 139%
Median day of survival (leukemia P 388; 1.25 mg/kg IP): 17.0 days
Variation by weight (g) (leukemia P 388; 1.25 mg/kg IP): +3.3 g
Number of survivors (leukemia P 388; 1.25 mg/kg IP): 0/10
T/C % (leukemia P 388; 1.25 mg/kg IP): 150%
Median day of survival (leukemia P 388; 2.5 mg/kg IP): 16.4 days
Variation by weight (g) (leukemia P 388; 2.5 mg/kg IP): +3.2 g
Number of survivors (leukemia P 388; 2.5 mg/kg IP): 0/10
T/C % (leukemia P 388; 2.5 mg/kg IP): 145%
Median day of survival (leukemia P 388; 5 mg/kg IP): 21.0 days
Variation by weight (g) (leukemia P 388; 5 mg/kg IP): +2.0 g
Number of survivors (leukemia P 388; 5 mg/kg IP): 1/10
T/C % (leukemia P 388; 5 mg/kg IP): 186%
Median day of survival (leukemia P 388; 10 mg/kg IP): 16.75 days
Variation by weight (g) (leukemia P 388; 10 mg/kg IP): +1.8 g
Number of survivors (leukemia P 388; 10 mg/kg IP): 0/10
T/C % (leukemia P 388; 10 mg/kg IP): 148%
Median day of survival (leukemia P 388; 20 mg/kg IP): 7.8 days
Variation by weight (leukemia P 388; 20 mg/kg IP): -0.4 g
Number of survivors (leukemia P 388; 20 mg/kg IP): 0/10
T/C % (leukemia P 388; 20 mg/kg IP): 69%
Median day of survival (leukemia P388; 5 mg/kg IP): 15.3 days
Variation by weight (leukemia P388; 5 mg/kg IP): -0.1 g
Number of survivors (leukemia P388; 5 mg/kg IP): 0/10
T/C % (leukemia P388; 5 mg/kg IP): 139%
Median day of survival (leukemia P388; 10 mg/kg IP): 15.25 days
Variation by weight (g) (leukemia P388; 10 mg/kg IP): +0.3 g
Number of survivors (leukemia P388; 10 mg/kg IP): 0/10
T/C % (leukemia P388; 10 mg/kg IP): 139%
Median day of survival (leukemia P388; 20 mg/kg IP): 15.6 days
Variation by weight (leukemia P388; 20 mg/kg IP): -0.8 g
Number of survivors (leukemia P388; 20 mg/kg IP): 0/10
T/C % (leukemia P388; 20 mg/kg IP): 142%
Median day of survival (leukemia P388; 40 mg/kg IP): 15.3 days
Variation by weight (leukemia P388; 40 mg/kg IP): -1.4 g
Number of survivors (leukemia P388; 40 mg/kg IP): 0/10
T/C % (leukemia P388; 40 mg/kg IP): 139%
Median day of survival (melanoma B 16; 1.25 mg/kg IP): 32.0 days
Variation by weight (g) (melanoma B 16; 1.25 mg/kg IP): +2.8 g
Number of survivors (melanoma B 16; 1.25 mg/kg IP): 0/10
T/C % (melanoma B 16; 1.25 mg/kg IP): 116%
Median day of survival (melanoma B 16; 2.5 mg/kg IP): 38.75 days
Variation by weight (g) (melanoma B 16; 2.5 mg/kg IP): +1.8 g
Number of survivors (melanoma B 16; 2.5 mg/kg IP): 0/10
T/C % (melanoma B 16; 2.5 mg/kg IP): 141%
Median day of survival (melanoma B 16; 5 mg/kg IP): 44.0 days
Variation by weight (g) (melanoma B 16; 5 mg/kg IP): +2.4 g
Number of survivors (melanoma B 16; 5 mg/kg IP): 0/10
T/C % (melanoma B 16; 5 mg/kg IP): 160%
Median day of survival (melanoma B 16; 10 mg/kg IP): 11.7 days
Variation by weight (g) (melanoma B 16; 10 mg/kg IP): +0.5 g
Number of survivors (melanoma B 16; 10 mg/kg IP): 0/10
T/C % (melanoma B 16; 10 mg/kg IP): 42%
